Measurements taken from the supplement of paper PMC8612539.
≈ marks a conversion by molar mass, not a printed value.

Test system: Escherichia coli
Assay: minimum inhibitory concentration (MIC)
Method: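 Broth microdilution MIC (Sensititre BOPO7F bovine plate, CLSI methods) of 19 antimicrobials against field isolates of P. multocida, M. haemolytica, H. somni (deep nasopharyngeal swabs) and E. coli, Enterococcus spp. (rectal swabs) from weaned dairy heifers. Incubation 16-24 h at 35 C. MIC is the lowest concentration preventing visible growth. Values with <= or > lie at the tested range limits. Trimethoprim-sulfamethoxazole is given as the trimethoprim component of a 1:19 mixture.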

NC[C@@H]1O[C@H](O[C@H]2[C@@H](O)[C@H](O[C@@H]3[C@@H](O)[C@H](N)C[C@H](N)[C@H]3O[C@H]3O[C@H](CN)[C@@H](O)[C@H](O)[C@H]3N)O[C@@H]2CO)[C@H](N)[C@@H](O)[C@@H]1O [Neomycin]
Settings | minimum inhibitory concentration [µg/mL]
isolate (source animal id): 8 | 32 (≈ 52.1 µM)
isolate (source animal id): 9 | ≤ 4
isolate (source animal id): 10 | > 32
isolate (source animal id): 11 | ≤ 4
isolate (source animal id): 12 | ≤ 4
isolate (source animal id): 13 | ≤ 4
isolate (source animal id): 14 | 32 (≈ 52.1 µM)
isolate (source animal id): 15 | ≤ 4
isolate (source animal id): 16 | ≤ 4
isolate (source animal id): 98 | ≤ 4
isolate (source animal id): 99 | ≤ 4
isolate (source animal id): 100 | ≤ 4
isolate (source animal id): 101 | ≤ 4
isolate (source animal id): 102 | ≤ 4
isolate (source animal id): 103 | ≤ 4
isolate (source animal id): 104 | ≤ 4
isolate (source animal id): 105 | ≤ 4
isolate (source animal id): 106 | > 32
isolate (source animal id): 107 | ≤ 4
isolate (source animal id): 108 | ≤ 4
isolate (source animal id): 109 | ≤ 4
isolate (source animal id): 110 | ≤ 4
isolate (source animal id): 111 | > 32
isolate (source animal id): 112 | > 32
isolate (source animal id): 113 | ≤ 4
isolate (source animal id): 114 | ≤ 4
isolate (source animal id): 115 | > 32
isolate (source animal id): 116 | ≤ 4
isolate (source animal id): 117 | > 32
isolate (source animal id): 118 | ≤ 4
isolate (source animal id): 119 | ≤ 4
isolate (source animal id): 120 | > 32
isolate (source animal id): 121 | ≤ 4
isolate (source animal id): 122 | > 32
isolate (source animal id): 123 | ≤ 4
isolate (source animal id): 124 | ≤ 4
isolate (source animal id): 125 | ≤ 4
isolate (source animal id): 126 | ≤ 4
isolate (source animal id): 127 | ≤ 4
isolate (source animal id): 128 | ≤ 4
isolate (source animal id): 129 | ≤ 4
isolate (source animal id): 130 | ≤ 4
isolate (source animal id): 131 | ≤ 4
isolate (source animal id): 132 | > 32
isolate (source animal id): 133 | ≤ 4
isolate (source animal id): 134 | ≤ 4
isolate (source animal id): 135 | ≤ 4
isolate (source animal id): 136 | ≤ 4
isolate (source animal id): 137 | > 32
isolate (source animal id): 138 | ≤ 4
isolate (source animal id): 139 | ≤ 4
isolate (source animal id): 140 | ≤ 4
isolate (source animal id): 141 | > 32
isolate (source animal id): 142 | ≤ 4
isolate (source animal id): 143 | > 32
isolate (source animal id): 144 | ≤ 4
isolate (source animal id): 145 | > 32
isolate (source animal id): 146 | ≤ 4
isolate (source animal id): 147 | > 32
isolate (source animal id): 148 | ≤ 4
isolate (source animal id): 149 | ≤ 4
isolate (source animal id): 150 | > 32
isolate (source animal id): 151 | ≤ 4
isolate (source animal id): 152 | ≤ 4
isolate (source animal id): 153 | ≤ 4
isolate (source animal id): 154 | ≤ 4
isolate (source animal id): 155 | 32 (≈ 52.1 µM)
isolate (source animal id): 156 | > 32
isolate (source animal id): 157 | ≤ 4
isolate (source animal id): 158 | > 32
isolate (source animal id): 159 | ≤ 4
isolate (source animal id): 160 | > 32
isolate (source animal id): 161 | > 32
isolate (source animal id): 162 | ≤ 4
isolate (source animal id): 163 | ≤ 4
isolate (source animal id): 164 | ≤ 4
isolate (source animal id): 165 | 32 (≈ 52.1 µM)
isolate (source animal id): 166 | ≤ 4
isolate (source animal id): 167 | ≤ 4
isolate (source animal id): 168 | ≤ 4
isolate (source animal id): 169 | ≤ 4
isolate (source animal id): 170 | ≤ 4
isolate (source animal id): 171 | ≤ 4
isolate (source animal id): 172 | ≤ 4
isolate (source animal id): 173 | ≤ 4
isolate (source animal id): 174 | ≤ 4
isolate (source animal id): 175 | ≤ 4
isolate (source animal id): 176 | ≤ 4
isolate (source animal id): 177 | ≤ 4
isolate (source animal id): 178 | ≤ 4
isolate (source animal id): 179 | ≤ 4
isolate (source animal id): 180 | ≤ 4
isolate (source animal id): 181 | 32 (≈ 52.1 µM)
isolate (source animal id): 182 | ≤ 4
isolate (source animal id): 183 | ≤ 4
isolate (source animal id): 184 | ≤ 4
isolate (source animal id): 185 | ≤ 4
isolate (source animal id): 186 | ≤ 4
isolate (source animal id): 187 | 32 (≈ 52.1 µM)
isolate (source animal id): 188 | ≤ 4

CS(=O)(=O)c1ccc([C@@H](O)[C@@H](CF)NC(=O)C(Cl)Cl)cc1 [Florfenicol]
Settings | minimum inhibitory concentration [µg/mL]
isolate (source animal id): 8 | 4 (≈ 11.2 µM)
isolate (source animal id): 9 | > 8
isolate (source animal id): 10 | 4 (≈ 11.2 µM)
isolate (source animal id): 11 | 2 (≈ 5.58 µM)
isolate (source animal id): 12 | > 8
isolate (source animal id): 13 | 8 (≈ 22.3 µM)
isolate (source animal id): 14 | > 8
isolate (source animal id): 15 | > 8
isolate (source animal id): 16 | > 8
isolate (source animal id): 98 | 2 (≈ 5.58 µM)
isolate (source animal id): 99 | 4 (≈ 11.2 µM)
isolate (source animal id): 100 | > 8
isolate (source animal id): 101 | > 8
isolate (source animal id): 102 | > 8
isolate (source animal id): 103 | 4 (≈ 11.2 µM)
isolate (source animal id): 104 | > 8
isolate (source animal id): 105 | > 8
isolate (source animal id): 106 | > 8
isolate (source animal id): 107 | > 8
isolate (source animal id): 108 | > 8
isolate (source animal id): 109 | > 8
isolate (source animal id): 110 | > 8
isolate (source animal id): 111 | 4 (≈ 11.2 µM)
isolate (source animal id): 112 | > 8
isolate (source animal id): 113 | > 8
isolate (source animal id): 114 | 4 (≈ 11.2 µM)
isolate (source animal id): 115 | > 8
isolate (source animal id): 116 | > 8
isolate (source animal id): 117 | > 8
isolate (source animal id): 118 | > 8
isolate (source animal id): 119 | > 8
isolate (source animal id): 120 | > 8
isolate (source animal id): 121 | > 8
isolate (source animal id): 122 | > 8
isolate (source animal id): 123 | > 8
isolate (source animal id): 124 | > 8
isolate (source animal id): 125 | > 8
isolate (source animal id): 126 | > 8
isolate (source animal id): 127 | > 8
isolate (source animal id): 128 | > 8
isolate (source animal id): 129 | > 8
isolate (source animal id): 130 | > 8
isolate (source animal id): 131 | > 8
isolate (source animal id): 132 | > 8
isolate (source animal id): 133 | > 8
isolate (source animal id): 134 | > 8
isolate (source animal id): 135 | 8 (≈ 22.3 µM)
isolate (source animal id): 136 | > 8
isolate (source animal id): 137 | > 8
isolate (source animal id): 138 | > 8
isolate (source animal id): 139 | > 8
isolate (source animal id): 140 | 4 (≈ 11.2 µM)
isolate (source animal id): 141 | > 8
isolate (source animal id): 142 | > 8
isolate (source animal id): 143 | > 8
isolate (source animal id): 144 | > 8
isolate (source animal id): 145 | > 8
isolate (source animal id): 146 | > 8
isolate (source animal id): 147 | > 8
isolate (source animal id): 148 | > 8
isolate (source animal id): 149 | 4 (≈ 11.2 µM)
isolate (source animal id): 150 | > 8
isolate (source animal id): 151 | > 8
isolate (source animal id): 152 | > 8
isolate (source animal id): 153 | > 8
isolate (source animal id): 154 | > 8
isolate (source animal id): 155 | > 8
isolate (source animal id): 156 | > 8
isolate (source animal id): 157 | > 8
isolate (source animal id): 158 | > 8
isolate (source animal id): 159 | > 8
isolate (source animal id): 160 | > 8
isolate (source animal id): 161 | > 8
isolate (source animal id): 162 | > 8
isolate (source animal id): 163 | > 8
isolate (source animal id): 164 | > 8
isolate (source animal id): 165 | > 8
isolate (source animal id): 166 | > 8
isolate (source animal id): 167 | 8 (≈ 22.3 µM)
isolate (source animal id): 168 | 2 (≈ 5.58 µM)
isolate (source animal id): 169 | 8 (≈ 22.3 µM)
isolate (source animal id): 170 | 4 (≈ 11.2 µM)
isolate (source animal id): 171 | 4 (≈ 11.2 µM)
isolate (source animal id): 172 | 2 (≈ 5.58 µM)
isolate (source animal id): 173 | > 8
isolate (source animal id): 174 | 4 (≈ 11.2 µM)
isolate (source animal id): 175 | 8 (≈ 22.3 µM)
isolate (source animal id): 176 | 4 (≈ 11.2 µM)
isolate (source animal id): 177 | > 8
isolate (source animal id): 178 | > 8
isolate (source animal id): 179 | 4 (≈ 11.2 µM)
isolate (source animal id): 180 | 4 (≈ 11.2 µM)
isolate (source animal id): 181 | > 8
isolate (source animal id): 182 | 4 (≈ 11.2 µM)
isolate (source animal id): 183 | > 8
isolate (source animal id): 184 | 4 (≈ 11.2 µM)
isolate (source animal id): 185 | > 8
isolate (source animal id): 186 | 4 (≈ 11.2 µM)
isolate (source animal id): 187 | > 8
isolate (source animal id): 188 | > 8
